The NIST ThermoML archive (doi:10.1021/acs.jced.5b00317)
Numbers after ± are expanded uncertainties.

How the values were obtained:
[1] = mn = molality of the nth substance listed, in mol/kg; details: 101 kPa, Liquid; for speed of sound: Sing-around technique in a fixed-path interferometer; for mass density: Vibrating tube method
[2] = cn = amount concentration of the nth substance listed, in mol/dm3; details: 101 kPa, Liquid; for speed of sound: Sing-around technique in a fixed-path interferometer; for mass density: Vibrating tube method

Cc1onc(-c2c(F)cccc2Cl)c1C(=O)N[C@@H]1C(=O)N2[C@@H]1SC(C)(C)[C@@H]2C(=O)[O-].[Na+] + O
[1]
Details | mass density [kg/m3] | speed of sound [m/s]
298.15 K, m1 = 0.03508 | 1003.21 ± 1 | 1503 ± 0.77
298.15 K, m1 = 0.05711 | 1007 ± 1 | 1506.4 ± 0.77
298.15 K, m1 = 0.07305 | 1009.68 ± 1 | 1508.6 ± 0.77
298.15 K, m1 = 0.09335 | 1013.04 ± 1 | 1511.2 ± 0.78
298.15 K, m1 = 0.1142 | 1016.42 ± 1 | 1513.7 ± 0.78
298.15 K, m1 = 0.1343 | 1019.68 ± 1 | 1515.8 ± 0.78
298.15 K, m1 = 0.148 | 1021.89 ± 1 | 1517.2 ± 0.78
298.15 K, m1 = 0.1675 | 1025.02 ± 1 | 1518.9 ± 0.79
298.15 K, m1 = 0.1812 | 1027.16 ± 1 | 1520.1 ± 0.79
303.15 K, m1 = 0.03508 | 1001.74 ± 1 | 1514.8 ± 0.77
303.15 K, m1 = 0.05711 | 1005.49 ± 1 | 1517.8 ± 0.78
303.15 K, m1 = 0.07305 | 1008.14 ± 1 | 1519.9 ± 0.78
303.15 K, m1 = 0.09335 | 1011.46 ± 1 | 1522.2 ± 0.78
303.15 K, m1 = 0.1142 | 1014.8 ± 1 | 1524.4 ± 0.78
303.15 K, m1 = 0.1343 | 1018.04 ± 1 | 1526.4 ± 0.79
303.15 K, m1 = 0.148 | 1020.23 ± 1 | 1527.6 ± 0.79
303.15 K, m1 = 0.1675 | 1023.33 ± 1 | 1529.2 ± 0.79
303.15 K, m1 = 0.1812 | 1025.46 ± 1 | 1530.2 ± 0.79
308.15 K, m1 = 0.03508 | 1000.05 ± 1 | 1524.9 ± 0.78
308.15 K, m1 = 0.05711 | 1003.77 ± 1 | 1527.6 ± 0.78
308.15 K, m1 = 0.07305 | 1006.39 ± 1 | 1529.5 ± 0.78
308.15 K, m1 = 0.09335 | 1009.67 ± 1 | 1531.6 ± 0.78
308.15 K, m1 = 0.1142 | 1012.98 ± 1 | 1533.5 ± 0.79
308.15 K, m1 = 0.1343 | 1016.18 ± 1 | 1535.3 ± 0.79
308.15 K, m1 = 0.148 | 1018.35 ± 1 | 1536.4 ± 0.79
308.15 K, m1 = 0.1675 | 1021.43 ± 1 | 1537.8 ± 0.79
308.15 K, m1 = 0.1812 | 1023.54 ± 1 | 1538.7 ± 0.8
313.15 K, m1 = 0.03508 | 998.174 ± 1 | 1533.5 ± 0.78
313.15 K, m1 = 0.05711 | 1001.85 ± 1 | 1535.9 ± 0.78
313.15 K, m1 = 0.07305 | 1004.44 ± 1 | 1537.5 ± 0.78
313.15 K, m1 = 0.09335 | 1007.69 ± 1 | 1539.4 ± 0.79
313.15 K, m1 = 0.1142 | 1010.97 ± 1 | 1541.1 ± 0.79
313.15 K, m1 = 0.1343 | 1014.14 ± 1 | 1542.7 ± 0.79
313.15 K, m1 = 0.148 | 1016.29 ± 1 | 1543.7 ± 0.79
313.15 K, m1 = 0.1675 | 1019.34 ± 1 | 1544.9 ± 0.8
313.15 K, m1 = 0.1812 | 1021.43 ± 1 | 1545.7 ± 0.8
318.15 K, m1 = 0.03508 | 996.11 ± 1 | 1540.5 ± 0.78
318.15 K, m1 = 0.05711 | 999.746 ± 1 | 1542.6 ± 0.78
318.15 K, m1 = 0.07305 | 1002.31 ± 1 | 1544.1 ± 0.79
318.15 K, m1 = 0.09335 | 1005.53 ± 1 | 1545.7 ± 0.79
318.15 K, m1 = 0.1142 | 1008.77 ± 1 | 1547.3 ± 0.79
318.15 K, m1 = 0.1343 | 1011.91 ± 1 | 1548.7 ± 0.79
318.15 K, m1 = 0.148 | 1014.05 ± 1 | 1549.5 ± 0.8
318.15 K, m1 = 0.1675 | 1017.07 ± 1 | 1550.6 ± 0.8
318.15 K, m1 = 0.1812 | 1019.15 ± 1 | 1551.4 ± 0.8
323.15 K, m1 = 0.03508 | 993.877 ± 1 | 1546.1 ± 0.78
323.15 K, m1 = 0.05711 | 997.477 ± 1 | 1548 ± 0.79
323.15 K, m1 = 0.07305 | 1000.02 ± 1 | 1549.2 ± 0.79
323.15 K, m1 = 0.09335 | 1003.2 ± 1 | 1550.7 ± 0.79
323.15 K, m1 = 0.1142 | 1006.42 ± 1 | 1552.1 ± 0.79
323.15 K, m1 = 0.1343 | 1009.52 ± 1 | 1553.3 ± 0.8
323.15 K, m1 = 0.148 | 1011.64 ± 1 | 1554 ± 0.8
323.15 K, m1 = 0.1675 | 1014.64 ± 1 | 1555 ± 0.8
323.15 K, m1 = 0.1812 | 1016.7 ± 1 | 1555.7 ± 0.8

[Cl-].[Na+] [sodium chloride] + O
[2]
Details | mass density [kg/m3] | speed of sound [m/s]
298.15 K, c1 = 0.0251 | 998.068 ± 1 | –
298.15 K, c1 = 0.0586 | 999.427 ± 1 | 1501.1 ± 0.76
298.15 K, c1 = 0.1021 | 1001.16 ± 1 | 1503.8 ± 0.76
298.15 K, c1 = 0.1483 | 1002.99 ± 1 | 1506.4 ± 0.77
298.15 K, c1 = 0.2047 | 1005.19 ± 1 | 1509.4 ± 0.77
298.15 K, c1 = 0.2543 | 1007.12 ± 1 | 1511.8 ± 0.77
303.15 K, c1 = 0.0251 | 996.654 ± 1 | 1511.3 ± 0.77
303.15 K, c1 = 0.0586 | 997.998 ± 1 | 1513.4 ± 0.77
303.15 K, c1 = 0.1021 | 999.715 ± 1 | 1516 ± 0.77
303.15 K, c1 = 0.1483 | 1001.52 ± 1 | 1518.5 ± 0.77
303.15 K, c1 = 0.2047 | 1003.7 ± 1 | 1521.4 ± 0.77
303.15 K, c1 = 0.2543 | 1005.61 ± 1 | 1523.6 ± 0.77
308.15 K, c1 = 0.0251 | 995.026 ± 1 | 1521.9 ± 0.77
308.15 K, c1 = 0.0586 | 996.357 ± 1 | 1524 ± 0.77
308.15 K, c1 = 0.1021 | 998.056 ± 1 | 1526.5 ± 0.77
308.15 K, c1 = 0.1483 | 999.851 ± 1 | 1528.9 ± 0.77
308.15 K, c1 = 0.2047 | 1002.01 ± 1 | 1531.6 ± 0.78
308.15 K, c1 = 0.2543 | 1003.9 ± 1 | 1533.7 ± 0.78
313.15 K, c1 = 0.0251 | 993.201 ± 1 | 1531 ± 0.77
313.15 K, c1 = 0.0586 | 994.523 ± 1 | –
313.15 K, c1 = 0.1021 | 996.208 ± 1 | 1535.5 ± 0.78
313.15 K, c1 = 0.1483 | 997.991 ± 1 | 1537.8 ± 0.78
313.15 K, c1 = 0.2047 | 1000.14 ± 1 | 1540.3 ± 0.78
313.15 K, c1 = 0.2543 | 1002.01 ± 1 | 1542.3 ± 0.78
318.15 K, c1 = 0.0251 | 991.192 ± 1 | 1538.5 ± 0.78
318.15 K, c1 = 0.0586 | 992.506 ± 1 | 1540.5 ± 0.78
318.15 K, c1 = 0.1021 | 994.181 ± 1 | 1542.8 ± 0.78
318.15 K, c1 = 0.1483 | 995.954 ± 1 | 1545.1 ± 0.78
318.15 K, c1 = 0.2047 | 998.089 ± 1 | 1547.6 ± 0.78
318.15 K, c1 = 0.2543 | 999.952 ± 1 | –
323.15 K, c1 = 0.0251 | 989.012 ± 1 | 1544.6 ± 0.78
323.15 K, c1 = 0.0586 | 990.317 ± 1 | 1546.5 ± 0.78
323.15 K, c1 = 0.1021 | 991.983 ± 1 | –
323.15 K, c1 = 0.1483 | 993.747 ± 1 | 1551 ± 0.78
323.15 K, c1 = 0.2047 | 995.872 ± 1 | 1553.4 ± 0.78
323.15 K, c1 = 0.2543 | 997.725 ± 1 | 1555.2 ± 0.78
